From patent publication US20140288079A1, “SGC STIMULATORS OF SGC ACTIVATORS IN COMBINATION WITH PDE5 INHBITORS FOR THE TREATMENT OF ERECTILE DYSFUNCTION” (BAYER PHARMA AKTIENGESELLSCHAFT, priority 2009, published 2014)

Key:
[1] = tested on: conscious male chinchilla rabbits; assay: conscious rabbit ED model, low SNP dose (0.02 mg/kg i.v.), PDE5-resistant ED; assay type: in vivo
Protocol: (§1) The conscious rabbit ED model previously described (Bischoff and Schneider 2001) was used for the investigation of Erectile function. In brief: conscious male chinchilla rabbits (3-4 kg) were orally treated with the test compounds or with vehicle via gavage, followed by i.v. injection of the NO-donnor sodium nitro-prusside (SNP) in the ear vein, 90 minutes after oral applications. The SNP injections were done in a high dose setting (0.2 mg/kg SNP i.v) and a low dose setting (0.02 mg/kg SNP i.v.) corresponding to the general ED-population and the PDE5 non-responder ED-population, respectively. Penile length was quantified in 5 minutes intervals after injection of the SNP.

[2] = tested on: conscious male chinchilla rabbits; assay: haemodynamic effects by telemetry in conscious rabbits; assay type: in vivo, rabbit; conditions: stand alone
From the text: In brief, telemetric implants (C50 PXT-DSI®) were used. Signals were received with RMC1-DSI® receiver plates, compiled and analyzied with PONEMAH® physiology platform software.

[3] = tested on: conscious male chinchilla rabbits; assay: conscious rabbit ED model, high SNP dose (0.2 mg/kg i.v.), general ED population; assay type: in vivo; conditions: summary of Example 1; rabbits and rats; in the range of vardenafil
Protocol: as §1
The conscious rabbit ED model previously described (Bischoff and Schneider 2001) was used for the investigation of Erectile function as described in Example 1. The SNP injections were done in a high dose setting (0.2 mg/kg SNP i.v) corresponding to the general ED-population in which PDE5 inhibitors are fully active. Penile length was quantified in 5 minutes intervals after injection of the SNP.
The conscious rabbit ED model as described in Expample 1 and Example 6 was used for assessment of responderrates. […] Penile length was quantified in 5 minutes intervals after injection of the SNP. […]

[4] = previous studies; single administration of 2.0 mg BAY 60-4552; cited from earlier work
[5] = tested on: involved metabolic enzymes; conditions: stated as fact; cited from earlier work
[6] = phase I study #14441, pharmacokinetics of co-administration; assay type: in vivo, human; conditions: for half-life / Tmax: male, human, plasma, po; for Tmax: read-out: median tmax
From the text: The study was designed as a randomized, single-blind, placebo-controlled, group-comparison, dose-escalation study.

[7] = tested on: rabbits; conditions: intravenous and oral applications; cited from earlier work

## COC(=O)Nc1c(N)nc(-c2nn(Cc3ccccc3F)c3ncccc23)nc1N [BAY 60-4552, methyl-4,6-diamino-2-[1-(2-fluorobenzyl)-1H-pyrazolo[3,4-b]pyridin-3-yl]-5-pyrimidinylcarbamate]
[1]; low SNP 0.02 mg/kg i.v., 3 and 10 mg/kg p.o. stand alone
  penile erection (penile length): able to induce physiologically relevant erections
[2]; 1 mg/kg p.o.
  decrease in mean arterial blood pressure: −5 mmHg
  heart rate increase: +24 bpm
[2]; 3 mg/kg
  decrease in blood pressure: −11 mmHg
  heart rate increase: +51 bpm
[2]; 10 mg/kg
  decrease in blood pressure: −22 mmHg
  heart rate increase: +103 bpm
[3]
  erections, stand alone treatment: significant erections
[4]
  effect on heart rate and blood pressure: no clinically relevant effect on heart rate and blood pressure
[5]
  inhibitor or inducer of the involved metabolic enzymes: neither vardenafil nor BAY 60-4552 is an inhibitor or inducer
[6]; BAY 60-4552 1 mg to 2 mg in combination with vardenafil 2.5 mg to 20 mg
  dose proportionality of exposure: increased in proportion to the dose
[6]
  exposure following concomitant administration versus each compound alone: consistent with historical data
  half-life: 13 to 14 h
  Tmax: 0.5 to 1 h
[6]; in vivo
  time linearity of pharmacokinetics: time linear

## COC(=O)N(C)c1c(N)nc(-c2nn(Cc3ccccc3F)c3ncccc23)nc1N [BAY 63-2521, methyl-4,6-diamino-2-[1-(2-fluorobenzyl)-1H-pyrazolo[3,4-b]pyridin-3-yl]-5-pyrimidinyl-(methyl)carbamate]
[7]
  erections: induced stable erections

## CCCc1nn(C)c2c(=O)[nH]c(-c3cc(S(=O)(=O)N4CCN(C)CC4)ccc3OCC)nc12 [Sildenafil, 3-[2-ethoxy-5-(4-methylpiperazin-1-yl)sulfonyl-phenyl]-7-methyl-9-propy 1-2,4,7,8-tetrazabicyclo[4.3.0]nona-3,8,10-trien-5-one, reference compound]
[1]; rabbit, in vivo
  penile erection (penile length): not able to produce any physiologically relevant erection

## CCCc1nc(C)c2c(=O)[nH]c(-c3cc(S(=O)(=O)N4CCN(CC)CC4)ccc3OCC)nn12 [Vardenafil, 2-(2-Ethoxy-5-(4-ethylpiperazin-1-yl-1-sulfonyl)phenyl)-5-methyl-7-propyl-3H-imidazo (5,1-f) (1,2,4)triazin-4-one, reference compound]
[2]; 1 mg/kg p.o.
  decrease in mean arterial blood pressure: −4 mmHg
  heart rate increase: +14 bpm
[6]; 20 mg vardenafil level
  dose proportionality of exposure: slightly higher than proportional exposure
[6]
  exposure following concomitant administration versus each compound alone: consistent with historical data
  half-life: 3 to 5 h
  Tmax: 0.75 to 1 h
[6]; vardenafil 2.5 mg to 10 mg in combination with 1 mg or 2 mg BAY 60-4552
  dose proportionality of AUC and Cmax: dose-proportional
